Assay results as given in US20170071928A1, “METHODS AND PHARMACEUTICAL COMPOSITIONS FOR TREATING DISEASES ASSOCIATED WITH ALTERED SERT ACTIVITY” (THE TRUSTEES OF COLUMBIA UNIVESITY IN THE CITY OF NEW YORK, priority 2014, published 2017).
Read-outs that look alike come from different tables or passages of the source.

Tests used:
[1] = tested on: ENCDC isolated from E15 fetal mouse gut; assay: Development/survival of enteric neurons from cultured ENCDC isolated from E15 fetal mouse gut; format: cell-based; conditions: ENCDC culture; for development/survival of total enteric neurons / development/survival of early-born (calretinin) neurons / development/survival of late-born enteric neurons that express TH or GABA / effect on development/survival of late-born neurons compared with total neurons: serum-free media; for development/survival of total enteric neurons: prucalopride 2.5 μM, BIMU-8 2.5 μM; for development/survival of early-born (calretinin) neurons / development/survival of late-born enteric neurons that express TH or GABA / effect on development/survival of late-born neurons compared with total neurons: 2.5 μM
Description: Immunocytochemistry was performed as follows: HuC/D, TH, g-aminobutyric acid (GABA), nNOS, and CGRP were located immunocytochemically to determine the abundance of total, dopaminergic, GABAergic, nitrergic and CGRP-expressing enteric neurons in G56A mice and their respective WT littermates. SERT immunoreactivity was also investigated to determine whether or not it is coincident with TH immunoreactivity in the myenteric plexus. In each experimental group, tissue samples were collected from ilea of 6-8 animals, fixed with 4% formaldehyde for 1.5 hours and washed in PBS. Whole mount preparations of longitudinal muscle with attached myenteric plexus (LMMP) were prepared by dissection. Cultured cells were fixed with 4% formaldehyde for 30 minutes and washed in PBS. Preparations were blocked with 10% normal horse serum for 30 minutes at room temp and then incubated for 48 or 72 hours at 4° C. with primary antibodies. Bound primary antibodies were visualized, respectively, with streptavidin-Alexa 594 for mouse monoclonal antibodies, and donkey antibodies to goat, rabbit, or sheep IgG coupled to Alexa 350, 488 or 594 (diluted 1:200; Invitrogen). Preparations were washed with PBS, mounted in buffered glycerol, and examined with a Leica CTR 6000 microscope. Images were obtained with a cooled CCD camera and analyzed with computer assistance (Volocity 5.4 imaging software; Improvision, Waltham, Mass.). To count the numbers of HuC/D-immunoreactive cells in each LMMP preparation, a motorized stage under computer control was used to scan and collect images with a 40× objective covering the entirety of a 10 mm^2 area. To count the numbers of CGRP-, nNOS- and TH-immunoreactive cells a similar procedure was used, except that images were collected with a 20× objective and that an area of 30 mm^2 was scanned. The higher magnification was needed for HuC/D-immunoreactive cells to be certain that overlapping cells could be distinguished. The lower magnification was advantageous for TH-immunoreactive cells, which are widely separated and relatively rare, because the cells were scattered and large numbers could be imaged for statistical reliability. The collected images were processed using a computer running Volocity 5.6 software to determine the numbers of immunoreactive cells of each type, which were presented as cells/mm^2. TH-immunoreactive terminal axons in the myenteric plexus of ileum of four G56A SERT and four WT mice were examined to study the effects of G56A SERT on the density of extrinsic sympathetic terminals. Sympathetic axons are far more abundant that dopaminergic axons in the myenteric plexus. Their large varicosities and coarse structure also distinguish sympathetic from dopaminergic axons. Dopaminergic neurons, moreover, are primarily located in the submucosal plexus. In each preparation, 3 images were obtained with a 40× objective. The total area occupied by TH-immunoreactive terminals in each image was obtained with computer assistance (Volocity 5.6 software; Improvision, Perkin Elmer).
The hypothesis was tested that 5-HT-promoted enteric neurogenesis is 5-HT4-mediated. The responsible receptor was also sought. ENCDC were isolated from E15 fetal mouse gut with antibodies to p75NTR and cultured in serum-free media. […] The 5-HT4 antagonist, GR113808 (1.0 μM), prevented 5-HT, prucalopride, or BIMU-8 from enhancing development/survival of total dopaminergic or GABAergic neurons.

[2] = tested on: G56A mice; assay: Small intestinal transit (rhodamine B dextran geometric center) with exogenous 5-HT; format: in vivo, mouse; conditions: G56A mice compared to WT mice (FIG. 2D)
Description: For analysis of gastric emptying and small intestinal transit, mice were fasted overnight in cages that lacked bedding. Water was withdrawn 3 hours before the experiment. A solution containing rhodamine B dextran (100 μl; 10 mg/ml in 2% methylcellulose, Invitrogen, Carlsbad, Calif.) was administered to each mouse by gavage through a 21-gauge round-tip feeding needle. Animals were euthanized 15 minutes after gavage; the stomach, small intestine, cecum, and colon were collected in 0.9% NaCl. The small intestine was divided into 10 segments of equal length and the colon (used to obtain total recovered rhodamine B fluorescence) was divided in half. […] Rhodamine fluorescence was measured in 1 ml aliquots of the supernatant (VersaFluor™ Fluorometer; BIO-RAD Laboratories, Hercules, Calif.). The proportion of the Rhodamine B dextran that emptied from the stomach was calculated as [(total recovered fluorescence−fluorescence remaining in the stomach)/(total recovered fluorescence)]×100.
Small intestinal transit was estimated by the position of the geometric center of the Rhodamine B dextran in the small bowel (Miller et al., 1981). For each segment of the small intestine (1-10), the geometric center (a) was calculated as: a=(fluorescence in each segment×number of the segment)/(total fluorescence recovered in the small intestine). […]

[3] = tested on: WT mice; assay: GI motility in mature offspring after prenatal and nursing prucalopride treatment, WT mice; format: in vivo, mouse; conditions: prucalopride treatment of fetal and nursing mice
Description: (§1) Carmine red, which cannot be absorbed from the lumen of the gut, was used to study total GI transit time (Kimball et al., 2005). A solution of carmine red (300 μl; 6%; Sigma Aldrich, St. Louis, Mo.) suspended in 0.5% methylcellulose (Sigma Aldrich, St. Louis, Mo.) was administered by gavage through a 21-gauge round-tip feeding needle. The time at which gavage took place was recorded as TO. After gavage, fecal pellets were monitored at 10 minutes intervals for the presence of carmine red. Total GI transit time was considered as the interval between TO and the time of first observance of carmine red in stool.
(§2) Colonic motility was studied as previously described (Li et al., 2006). Briefly, the animals were anesthetized with isoflurane (Baxter Pharmaceutical Products Inc, Deerfield, Ill.). A glass bead (3 mm in diameter) was pushed into the colon to a distance of 2 cm from the anal verge. The time required for expulsion of the glass bead was measured and taken as an estimate of colonic motility.
(§3) The dose of prucalopride was 24 mg into 350 ml of water and the mice were assumed to drink about 5 ml/day. After birth, the prucalopride was continued in the drinking water, and was thus delivered to the newborn and suckling pups via breast milk. When the pups were weaned, the prucalopride was stopped; therefore, the exogenous 5-HT4 stimulation was allowed to cease. […]

[4] = tested on: G56A mice; assay: GI motility in mature offspring after prenatal and nursing prucalopride treatment, G56A mice; format: in vivo, mouse; conditions: prucalopride oral in dams' drinking water (24 mg in 350 ml) from early pregnancy until weaning, then stopped
Description: as §1, §2, §3

[5] = tested on: wild-type adult mice and mice lacking 5-HT4 receptors; conditions: cited from earlier work

| Structure (SMILES) | development/survival of total enteric neurons [1] | ability to accelerate small intestinal transit [2] | GI motility in the mature animals [3] | GI motility in offspring at ages 2-3 months [4] | development/survival of early-born (calretinin) neurons [1] | development/survival of late-born enteric neurons that express TH or GABA [1] | effect on development/survival of late-born neurons compared with total neurons [1] | enteric neurogenesis ([5]; adult mice lacking 5-HT4 receptors) | enteric neurogenesis ([5]; wild-type adult mice) | antagonism of the enhancement by 5-HT, prucalopride or BIMU-8 of development/survival of total dopaminergic or GABAergic neurons ([1]; GR113808 1.0 μM) |
| --- | --- | --- | --- | --- | --- | --- | --- | --- | --- | --- |
| NCCc1c[nH]c2ccc(O)cc12 [5-HT, 5-hydroxytryptamine] | enhanced the development/survival of total enteric neurons | impaired |  |  |  |  |  |  |  |  |
| COCCCN1CCC(NC(=O)c2cc(Cl)c(N)c3c2OCC3)CC1 [prucalopride] | enhanced the development/survival of total enteric neurons |  | not found to exert significant effects | restored to normal | Neither prucalopride nor BIMU-8 enhanced | increased development/survival | significantly greater than on total | not in those lacking 5-HT4 receptors | stimulate enteric neurogenesis |  |
| CC(C)n1c(=O)n(C(=O)NC2CC3CCC(C2)N3C)c2ccccc21 (stereo not drawn) [BIMU-8] | enhanced the development/survival of total enteric neurons |  |  |  | Neither prucalopride nor BIMU-8 enhanced | increased development/survival | significantly greater than on total |  |  |  |
| Cn1cc(C(=O)OCC2CCN(CCNS(C)(=O)=O)CC2)c2ccccc21 [GR113808] |  |  |  |  |  |  |  |  |  | prevented |
